Experimental data reported in patent publication US8895740B2, “Pyrazolopyrazine kinase inhibitors” (Vertex Pharmaceuticals Incorporated, priority 2010, dated 2014).

What was measured:
[1] = target: PKC delta kinase (Homo sapiens, UniProt Q05655); assay: PKC delta kinase coupled-enzyme (NADH consumption) inhibition assay; type: biochemical; settings: 150 μM ATP, 46 nM PKC delta, 30° C.
Method: An assay buffer solution was prepared which consisted of 100 mM HEPES (pH 7.5), 10 mM MgCl2, 25 mM NaCl, 0.1 mM EDTA and 0.01% Brij. An enzyme buffer containing reagents to final assay concentrations of 0.002% Triton X-100, 200 μg/mL Phosphatidylserine, 20 μg/mL Diacylglycerol, 360 μM NADH, 3 mM phosphoenolpyruvate, 70 μg/mL pyruvate kinase, 24 μg/mL lactate dehydrogenase, 2 mM DTT, 150 μM substrate peptide (ERMRPRKRQGSVRRRV SEQ ID NO. 2) and 46 nM PKC delta kinase was prepared in assay buffer. To 16 μL of this enzyme buffer, in a 384 well plate, was added 1 μL of VRT stock solution in DMSO. The mixture was allowed to equilibrate for 10 mins at 30° C. The enzyme reaction was initiated by the addition of 16 μL stock ATP solution prepared in assay buffer to a final assay concentration of 150 μM. Initial rate data was determined from the rate of change of absorbance at 340 nm (corresponding to stoichiometric consumption of NADH) using a Molecular Devices Spectramax plate reader (Sunnyvale, Calif.) over 15 mins at 30° C. For each Ki determination 12 data points covering the VRT concentration range of 0-20 μM were obtained in duplicate (DMSO stocks were prepared from an initial 10 mM VRT stock with subsequent 1:2 serial dilutions). Ki values were calculated from initial rate data by non-linear regression using the Prism software package (Prism 4.0a, Graphpad Software, San Diego, Calif.).

[2] = target: PKC theta kinase (Homo sapiens, UniProt Q04759); assay: PKC theta kinase coupled-enzyme (NADH consumption) inhibition assay; type: biochemical; settings: 240 μM ATP, 18 nM PKC theta, 30° C.
Method: An assay buffer solution was prepared which consisted of 100 mM HEPES (pH 7.5), 10 mM MgCl2, 25 mM NaCl, 0.1 mM EDTA and 0.01% Brij. An enzyme buffer containing reagents to final assay concentrations of 0.00001% Triton X-100, 200 μg/mL Phosphatidylserine, 20 μg/mL Diacylglycerol, 360 μM NADH, 3 mM phosphoenolpyruvate, 70 μg/mL pyruvate kinase, 24 μg/mL lactate dehydrogenase, 2 mM DTT, 100 μM substrate peptide (ERMRPRKRQGSVRRRV SEQ ID NO. 1) and 18 nM PKC theta kinase was prepared in assay buffer. To 60 μL of this enzyme buffer, in a 384 well plate, was added 2 μL of VRT stock solution in DMSO. The mixture was allowed to equilibrate for 10 mins at 30° C. The enzyme reaction was initiated by the addition of 5 μL stock ATP solution prepared in assay buffer to a final assay concentration of 240 μM. Initial rate data was determined from the rate of change of absorbance at 340 nm (corresponding to stoichiometric consumption of NADH) using a Molecular Devices Spectramax plate reader (Sunnyvale, Calif.) over 15 mins at 30° C. For each Ki determination 12 data points covering the VRT concentration range of 0-20 μM were obtained in duplicate (DMSO stocks were prepared from an initial 10 mM VRT stock with subsequent 1:2 serial dilutions). Ki values were calculated from initial rate data by non-linear regression using the Prism software package (Prism 4.0a, Graphpad Software, San Diego, Calif.).

PKC theta kinase, sequence (Q04759 whole entry): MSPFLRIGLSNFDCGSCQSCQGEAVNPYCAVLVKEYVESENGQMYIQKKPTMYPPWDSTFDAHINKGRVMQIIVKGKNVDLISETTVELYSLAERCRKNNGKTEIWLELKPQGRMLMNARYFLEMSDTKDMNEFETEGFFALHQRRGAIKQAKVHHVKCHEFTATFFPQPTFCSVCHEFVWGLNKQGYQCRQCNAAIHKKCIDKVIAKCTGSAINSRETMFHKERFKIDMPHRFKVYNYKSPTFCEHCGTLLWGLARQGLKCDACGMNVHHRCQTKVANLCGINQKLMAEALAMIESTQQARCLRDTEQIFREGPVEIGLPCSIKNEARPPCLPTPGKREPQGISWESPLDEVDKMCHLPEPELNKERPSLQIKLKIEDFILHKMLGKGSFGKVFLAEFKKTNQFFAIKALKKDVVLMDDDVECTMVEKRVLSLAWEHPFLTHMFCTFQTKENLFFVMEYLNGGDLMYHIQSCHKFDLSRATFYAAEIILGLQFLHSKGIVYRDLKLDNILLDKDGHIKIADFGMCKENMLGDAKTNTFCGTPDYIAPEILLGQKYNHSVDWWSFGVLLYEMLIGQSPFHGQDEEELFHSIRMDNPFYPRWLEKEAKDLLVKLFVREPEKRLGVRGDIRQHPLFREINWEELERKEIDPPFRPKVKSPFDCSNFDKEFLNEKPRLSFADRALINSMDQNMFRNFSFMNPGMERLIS
PKC delta kinase, sequence (Q05655 whole entry): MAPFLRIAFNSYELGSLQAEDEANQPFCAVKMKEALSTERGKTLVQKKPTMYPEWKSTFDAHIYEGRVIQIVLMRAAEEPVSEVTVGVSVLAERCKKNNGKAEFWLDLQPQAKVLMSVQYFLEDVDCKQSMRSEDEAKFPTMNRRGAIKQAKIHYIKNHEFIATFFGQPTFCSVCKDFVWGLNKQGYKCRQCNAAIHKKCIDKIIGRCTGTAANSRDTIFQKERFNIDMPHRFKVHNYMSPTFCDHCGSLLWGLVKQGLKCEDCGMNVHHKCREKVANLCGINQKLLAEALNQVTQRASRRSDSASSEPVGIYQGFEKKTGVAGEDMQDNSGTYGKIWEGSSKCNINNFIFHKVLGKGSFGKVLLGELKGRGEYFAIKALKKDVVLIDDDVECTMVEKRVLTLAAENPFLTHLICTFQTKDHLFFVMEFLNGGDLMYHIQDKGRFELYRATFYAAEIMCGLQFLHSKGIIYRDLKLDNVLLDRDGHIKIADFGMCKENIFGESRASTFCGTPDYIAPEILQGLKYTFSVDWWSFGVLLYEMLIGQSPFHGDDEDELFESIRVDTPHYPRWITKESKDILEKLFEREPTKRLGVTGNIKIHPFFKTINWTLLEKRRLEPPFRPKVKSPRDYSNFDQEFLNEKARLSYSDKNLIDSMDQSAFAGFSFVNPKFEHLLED

Compound c1cc(-c2n[nH]c3nccnc23)nc(N2CCNCC2)c1 [Compound 1, 3-(6-(piperazin-1-yl)pyridin-2-yl)-1H-pyrazolo[3,4-b]pyrazine] has a Ki [1] of over 1250 nM and a Ki [2] of under 2800 nM.
